Experimental data from publication PMC9971260 (Scientific Reports, 2023).
Structures can show the parent of a compound that is named as a salt.

Legend:
COX-1 = details: read-out: IC50 against COX-1; cited from earlier work
[1] = mouse, in vivo, 50 mg/kg; cited from earlier work
[2] = tested on: carrageenan-induced hyperalgesia; experiment: post-treatment of carrageenan-induced hyperalgesia; assay type: in vivo, rat; details: rats
Protocol: The PWL of untreated rats from the pre-treatment carrageenan study were used as a negative control in this experiment, as well. […] One hind paw was randomly selected to be the observed paw for the entirety of the experiment. Prior to administration of a treatment, the baseline (-23 h) PWL was assessed as described above.
Twenty-three hours after administration of carrageenan, PWL was assessed (23 h) to confirm induction of hyperalgesia, and to establish the PWL prior to treatment. […] PWL was assessed relative to administration of treatment ([…], 48, 72, and 96 h), and two PWL measurements were taken at each time point for each rat.

[3] = tested on: carrageenan-induced paw edema and hyperalgesia; experiment: pre-treatment of carrageenan-induced paw edema and hyperalgesia; details: rats
[4] = parameters: method as in earlier work; details: cited from earlier work
postoperative pain [5] = experiment: pre- and post-treatment of postoperative pain (incisional model); assay type: in vivo, mouse; details: mice, pretreatment 5 mg/kg SC 2 h before surgery
Protocol: Twenty-eight (28) mice were randomly assigned to one of four treatment groups: vehicle (5 μL/g, SC) (n = 8), UK4b (20 mg/kg, SC) (n = 7), UK4b (10 mg/kg, SC) (n = 7), and morphine (5 mg/kg, SC) (n = 6). This experiment took place over 14 days. Animals underwent the same acclimation and baseline measurement for PWL and mechanical sensitization threshold as described in the section above on Days -4 to -1. On Day 0, surgery was performed as described above, but each animal received their first treatment two hours prior to surgery (-2 h). Two hours after surgery was complete, PWL was assessed, followed by measurement of mechanical sensitization threshold. Treatment continued once daily from Days 1 through 7. Two hours after drug treatment, PWL and mechanical sensitization threshold are measured. On Day 9, 48 h after the final treatment was administered on Day 7, PWL and mechanical threshold are assessed to follow-up with the animals after treatment ceases. The PWL (seconds) was graphed relative to time (days since surgery). Mechanical sensitization thresholds were graphed as 50% threshold (grams) versus time (days since surgery).

postoperative pain [6] = experiment: post-treatment of postoperative pain (incisional model); assay type: in vivo, mouse; details: mice, 5 mg/kg SC daily Days 1 to 7
Protocol: Thirty-one (31) mice were randomly assigned to one of four treatment groups: vehicle (5 μL/g, SC) (n = 8), UK4b (20 mg/kg, SC) (n = 7), UK4b (10 mg/kg, SC) (n = 8), and morphine (5 mg/kg, SC) (n = 8). This experiment took place over 14 days. […] Similarly, four days before surgery, the animals began acclimation for one hour per day to the mechanical sensitization (allodynia) apparatus before assessment. Mechanical sensitization was measured with a series of 8 von Frey fiber filaments (0.008 g (1.65); 0.02 g (2.36); 0.07 g (2.83); 0.16 g (3.22); 0.4 g (3.61); 1.0 g (4.08); 2.0 g (4.31); 6.0 g (4.74); Stoelting, Wood Dale, IL) using a modified up-down method. For the algorithm, each filament is applied to the plantar surface of the hind paw for five times. If the mouse retracts that hind paw at least three times, that is considered a positive response to the filament, and the next applied filament would be weaker than the last. If the animal retracts the hind paw fewer than three times, this is a negative response, and the next stronger filament is applied. […] Two hours after surgery was complete, PWL was assessed, followed by measurement of mechanical sensitization threshold. […] On Day 9, 48 h after the final treatment was administered on Day 7, PWL and mechanical sensitization threshold were assessed to follow-up with the animals after treatment ceased. […]

COX-2 = details: cited from earlier work

Cc1ccc(-c2cc(C(F)(F)F)nn2-c2ccc(S(N)(=O)=O)cc2)cc1 [celecoxib]
stomach tissue damage [1]: caused stomach tissue damage in all mice

COc1ccc2c3c1O[C@H]1C(=O)CC[C@@]4(O)[C@@H](C2)N(C)CC[C@]314 [oxycodone, Oxycodone hydrochloride]
carrageenan-induced hyperalgesia (PWL), post-treatment ([2]; 5 mg/kg IP 23 h after carrageenan): significantly relieved the pain | carrageenan-induced hyperalgesia (PWL) ([3]; pretreatment 5 mg/kg IP, at and after 23 h): still significant pain | carrageenan-induced hyperalgesia (PWL) ([3]; pretreatment 5 mg/kg IP, within six hours after carrageenan injection): effectively relieved the pain

NCC1(CC(=O)O)CCCCC1 [gabapentin]
carrageenan-induced hyperalgesia (PWL), post-treatment ([2]; 100 mg/kg IP 23 h after carrageenan): significantly relieved the pain | carrageenan-induced hyperalgesia (PWL) ([3]; pretreatment 100 mg/kg IP 1 h or 4 h before carrageenan): similarly relieved the hyperalgesia, but 100 mg/kg gabapentin was not as effective as 10 mg/kg UK4b

CCCCC[C@H](O)/C=C/[C@H]1[C@H](O)CC(=O)[C@@H]1C/C=C\CCCC(=O)O [PGE2, prostaglandin E2]
plasma half-life [4]: 2.5 to 5 min

CN1CC[C@]23c4c5ccc(O)c4O[C@H]2[C@@H](O)C=C[C@H]3[C@H]1C5 [morphine]
postoperative allodynia (50% mechanical threshold) on Day 0 (postoperative pain [5]): did not significantly attenuate the postoperative allodynia | postoperative hyperalgesia (PWL) on Day 0 (postoperative pain [5]): significantly attenuating the postoperative hyperalgesia | postoperative allodynia (50% mechanical threshold) (postoperative pain [6]): significantly attenuated | postoperative hyperalgesia (PWL) (postoperative pain [6]): significantly attenuated

CS(=O)(=O)c1ccc(C2=C(c3ccccc3)C(=O)OC2)cc1 [rofecoxib]
IC50 against COX-2 (in words) (COX-2): low-nanomolar
